Data as given in patent US20210269504A1, “PROTEIN-BASED MICELLES FOR THE DELIVERY OF HYDROPHOBIC ACTIVE COMPOUNDS” (priority 2018, published 2021).

Experiment: Loading of 2Yx2A micelles with pyraclostrobin (A280 and HPLC quantification)
Format: physicochemical
Procedure: Pyraclostrobin is a highly water-insoluble organic compound that is also a potent fungicide. […] To determine if pyraclostrobin could be taken up into 2Yx2A micelles, pyraclostrobin was added until it saturated a solution of 100 μL of 11 μM (A280: 0.361) 2Yx2A, evidenced by yellow particulates. The solution was then centrifuged and the supernatant was removed and then placed in a fresh tube and centrifuged again. Supernatant removal and centrifugation were repeated 3 times to remove any insoluble pyraclostrobin that has not partitioned into the micelle interior. The solution was then measured with a nanodrop to determine its absorbance at 280 nm resulting in an A280 of 0.502 (+0.141 mAU). Given the pyrene extinction coefficient of 24,000 at A275, this increase in absorbance corresponds to the presence of 5.8 μM pyrene. Similarly, the same sample can be analyzed for pyraclostrobin content via HPLC using a calibration curved developed using known pyrene concentrations in acetonitrile (FIG. 18A). For HPLC analysis the protein-pyraclostrobin solution is diluted to ½ of its volume by pyrene to break apart the micelles. Then a known volume is injected onto the HPLC (FIG. 18B). Based on the area of the pyrene peak and volume injected the number of moles and thus the concentration of pyraclostrobin can be determined. Using this method, 7.37 μM pyraclostrobin is encapsulated in 11 μM of protein.
Instead of directly adding pyraclostrobin to a solution of 2Yx2A micelles an alternative method was used to achieve higher loading efficiency. This method involved the co-resuspension of lyophilized protein and pyraclostrobin in THF which is then slowly diluted with buffer. The solution was then centrifuged and the supernatant was removed and then placed in a fresh tube and centrifuged again. Supernatant removal and centrifugation were repeated 3 times to remove any insoluble pyraclostrobin that has not partitioned into the micelle interior. The sample was then lyophilized to remove all solvent and then resuspended in milliQ water. Although no visible precipitation was observed, the sample was centrifuged to remove any unincorporated pyraclostrobin. For HPLC analysis the protein-pyraclostrobin solution is diluted to ½ of its volume by pyrene to break apart the micelles. Then a known volume is injected onto the HPLC. Based on the area of the pyrene peak and volume injected the number of moles and thus the concentration of pyraclostrobin can be determined.

Structure (SMILES)	Concentration encapsulated in micelles (HPLC) (direct addition to 11 μM 2Yx2A)	Amount injected on the HPLC (resuspended in water, without 2Yx2A)	Amount injected on the HPLC (resuspended with 2Yx2A (THF co-resuspension, 100 mM PB pH 5.7))	Concentration present from increase in A280 (direct addition to 11 μM 2Yx2A, +0.141 absorbance, extinction coefficient 24,000)
COC(=O)N(OC)c1ccccc1COc1ccn(-c2ccc(Cl)cc2)n1 [pyraclostrobin]	7.37 µM	0.03 nmol	0.63 nmol	–
c1cc2ccc3cccc4ccc(c1)c2c34 [pyrene]	–	–	–	5.8 µM
